{
  "source": "patent US7705001B2",
  "about": "“Therapeutic substituted gamma lactams” (Allergan, Inc, priority 2008, dated 2010)",
  "test_system": "lashes and adjacent hairs of patients",
  "assay": "Lash and hair growth observed in glaucoma patients treated in one eye",
  "format": "in vivo, human",
  "details": "glaucoma patient treated in only one eye",
  "source_text": "In the course of treating patients having glaucoma, treatment may only be appropriate in one eye. […] The lash appearance on the lids of the treated eyes would have appeared quite attractive if it represented a bilateral phenomenon. As a result of its asymmetric nature, the long lashes on one side could be construed as disturbing from a cosmetic standpoint. A systemic examination was preformed as a result of the asymmetric phenomenon. It soon became apparent that this altered appearance was not an isolated finding. […] Definite differences could be identified to varying degrees in the lashes and adjacent hairs of all patients who were taking the drug on a unilateral basis for longer than 6 months.\nThe changes in the lashes were apparent on gross inspection in several patients once attention was focused on the issue. In those with light colored hair and lashes, the differences were only seen easily with the aid of the high magnification and lighting capabilities of the slit lamp biomicroscope. In the course of glaucoma follow-up examination, attention is generally immediately focused on the eye itself. As a result of the high power magnification needed only one eye is seen at a time and the eye is seen at a high enough power that the lashes are not in focus. […]",
  "data": [
    {"smiles": "CCNC(=O)CCC/C=C\\C[C@@H]1[C@@H](/C=C/[C@@H](O)CCc2ccccc2)[C@H](O)C[C@@H]1O", "note": "[bimatoprost]", "values": [
      {"measurement": "lash appearance in treated eye versus non-treated eye", "value": "longer, thicker, and fuller in the treated eye than in the non-treated eye"}
    ]}
  ]
}
